Legend:
[1] = target: cGMP-inhibited 3',5'-cyclic phosphodiesterase 3A (Homo sapiens, UniProt Q14432); test: Selectivity interaction (Eurofins safety panel) EUB0001564a PDE3A; details: at 10 µM
[2] = target: SRSF protein kinase 2 (Homo sapiens) (UniProt P78362); test: Selectivity interaction (ActivX KiNativ screen (kinase selectivity in THP-1 cell lysates)) EUB0000639a SRPK2; assay type: subcellular; details: lysate
[3] = target: Tyrosine-protein kinase JAK1 (Homo sapiens, UniProt P23458); test: Selectivity interaction (KinomeScan (DiscoverX)) EUB0000595a JAK1; details: at 10 µM
[4] = target: T1, Tyrosine-protein kinase Tec (Homo sapiens) (UniProt P42680); test: Selectivity interaction (KinomeScan (DiscoverX)) EUB0001049a TEC; details: at 1 µM
T1 sequence (whole entry): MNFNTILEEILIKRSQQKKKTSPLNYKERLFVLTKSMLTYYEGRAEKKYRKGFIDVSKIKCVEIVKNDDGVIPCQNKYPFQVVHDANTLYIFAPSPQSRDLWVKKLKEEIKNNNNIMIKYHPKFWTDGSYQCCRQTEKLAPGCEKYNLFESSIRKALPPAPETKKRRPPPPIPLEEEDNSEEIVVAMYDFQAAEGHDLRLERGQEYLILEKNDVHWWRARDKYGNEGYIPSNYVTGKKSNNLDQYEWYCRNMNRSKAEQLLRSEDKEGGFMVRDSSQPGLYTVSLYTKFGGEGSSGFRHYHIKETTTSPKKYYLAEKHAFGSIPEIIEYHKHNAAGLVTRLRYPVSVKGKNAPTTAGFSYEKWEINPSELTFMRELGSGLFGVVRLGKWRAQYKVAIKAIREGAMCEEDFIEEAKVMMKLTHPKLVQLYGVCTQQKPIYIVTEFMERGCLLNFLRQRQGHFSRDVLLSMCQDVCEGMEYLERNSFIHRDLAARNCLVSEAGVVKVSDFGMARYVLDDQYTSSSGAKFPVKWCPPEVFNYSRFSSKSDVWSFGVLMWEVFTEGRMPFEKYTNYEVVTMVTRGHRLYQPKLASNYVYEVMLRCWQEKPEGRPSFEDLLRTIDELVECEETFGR

[5] = target: Mitogen-activated protein kinase kinase kinase kinase 4 (Homo sapiens, UniProt O95819); test: Selectivity interaction (Kinase screening (Nanosyn)) EUB0000604a MAP4K4
Sequence of Mitogen-activated protein kinase kinase kinase kinase 4 (O95819 2-1239 limits assumed): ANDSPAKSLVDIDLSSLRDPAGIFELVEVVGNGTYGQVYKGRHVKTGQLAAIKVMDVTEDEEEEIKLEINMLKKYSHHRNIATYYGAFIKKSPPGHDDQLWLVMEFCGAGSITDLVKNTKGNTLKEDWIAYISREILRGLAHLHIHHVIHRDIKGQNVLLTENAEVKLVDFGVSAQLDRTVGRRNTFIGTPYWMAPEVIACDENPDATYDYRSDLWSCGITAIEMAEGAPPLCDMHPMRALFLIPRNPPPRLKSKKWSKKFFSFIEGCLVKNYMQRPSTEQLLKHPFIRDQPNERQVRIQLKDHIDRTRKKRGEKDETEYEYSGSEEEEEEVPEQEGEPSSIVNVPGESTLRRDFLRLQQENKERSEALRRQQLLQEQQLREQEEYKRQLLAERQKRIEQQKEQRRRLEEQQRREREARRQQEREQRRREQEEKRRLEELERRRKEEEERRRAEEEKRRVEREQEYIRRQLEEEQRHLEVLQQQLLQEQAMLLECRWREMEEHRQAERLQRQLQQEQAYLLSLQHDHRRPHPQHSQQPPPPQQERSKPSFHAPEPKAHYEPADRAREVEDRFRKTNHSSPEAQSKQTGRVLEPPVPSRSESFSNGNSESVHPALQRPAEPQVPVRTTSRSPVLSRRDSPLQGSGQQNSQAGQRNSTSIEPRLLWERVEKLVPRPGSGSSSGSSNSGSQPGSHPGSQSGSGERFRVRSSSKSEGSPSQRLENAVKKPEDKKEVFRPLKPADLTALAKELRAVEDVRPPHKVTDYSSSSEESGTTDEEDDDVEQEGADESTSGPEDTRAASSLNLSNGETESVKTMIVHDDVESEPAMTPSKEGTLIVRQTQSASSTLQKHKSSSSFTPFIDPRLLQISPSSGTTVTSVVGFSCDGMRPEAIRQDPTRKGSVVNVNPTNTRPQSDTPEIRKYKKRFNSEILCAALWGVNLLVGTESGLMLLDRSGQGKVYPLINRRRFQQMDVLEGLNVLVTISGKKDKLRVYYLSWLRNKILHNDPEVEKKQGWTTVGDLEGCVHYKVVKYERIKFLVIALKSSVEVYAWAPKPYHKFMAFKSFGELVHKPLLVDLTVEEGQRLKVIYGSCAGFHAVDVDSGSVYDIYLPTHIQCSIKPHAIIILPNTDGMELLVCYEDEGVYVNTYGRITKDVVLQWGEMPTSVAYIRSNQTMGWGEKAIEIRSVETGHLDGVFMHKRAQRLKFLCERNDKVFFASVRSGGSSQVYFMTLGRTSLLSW

[6] = target: T2, Receptor-type tyrosine-protein kinase FLT3 (Homo sapiens, UniProt P36888)
T2 sequence (P36888 whole entry): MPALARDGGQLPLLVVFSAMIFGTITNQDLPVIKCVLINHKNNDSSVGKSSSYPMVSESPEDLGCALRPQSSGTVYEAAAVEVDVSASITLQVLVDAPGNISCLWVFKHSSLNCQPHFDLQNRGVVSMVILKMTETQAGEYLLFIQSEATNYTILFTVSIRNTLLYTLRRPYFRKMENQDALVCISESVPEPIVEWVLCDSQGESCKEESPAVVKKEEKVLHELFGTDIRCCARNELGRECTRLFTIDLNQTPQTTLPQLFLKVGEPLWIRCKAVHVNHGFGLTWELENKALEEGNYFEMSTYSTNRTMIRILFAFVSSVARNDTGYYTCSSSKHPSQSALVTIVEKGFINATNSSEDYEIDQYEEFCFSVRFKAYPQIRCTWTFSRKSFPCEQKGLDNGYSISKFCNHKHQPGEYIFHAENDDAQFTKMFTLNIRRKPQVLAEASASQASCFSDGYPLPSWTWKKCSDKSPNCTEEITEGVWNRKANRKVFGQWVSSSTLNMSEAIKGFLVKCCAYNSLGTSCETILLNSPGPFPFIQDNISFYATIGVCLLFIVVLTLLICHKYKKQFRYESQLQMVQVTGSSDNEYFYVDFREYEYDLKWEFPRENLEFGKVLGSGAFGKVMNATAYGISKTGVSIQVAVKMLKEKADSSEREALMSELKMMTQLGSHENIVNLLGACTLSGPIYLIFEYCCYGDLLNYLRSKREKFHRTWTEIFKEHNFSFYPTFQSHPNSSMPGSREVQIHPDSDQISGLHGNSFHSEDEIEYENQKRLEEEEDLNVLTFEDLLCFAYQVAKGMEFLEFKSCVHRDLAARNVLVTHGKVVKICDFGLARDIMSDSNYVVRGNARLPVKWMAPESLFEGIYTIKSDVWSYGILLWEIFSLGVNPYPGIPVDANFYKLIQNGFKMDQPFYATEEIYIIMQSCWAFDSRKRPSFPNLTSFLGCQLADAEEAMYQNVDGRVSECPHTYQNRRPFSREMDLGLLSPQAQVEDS

[7] = target: Casein kinase I isoform gamma-1 (Homo sapiens) (UniProt Q9HCP0); test: Selectivity interaction (KinomeScan (DiscoverX)) EUB0001079a CSNK1G1; details: at 1 µM
Sequence of Casein kinase I isoform gamma-1 (Homo sapiens) (Q9HCP0 whole entry, looked up, canonical isoform): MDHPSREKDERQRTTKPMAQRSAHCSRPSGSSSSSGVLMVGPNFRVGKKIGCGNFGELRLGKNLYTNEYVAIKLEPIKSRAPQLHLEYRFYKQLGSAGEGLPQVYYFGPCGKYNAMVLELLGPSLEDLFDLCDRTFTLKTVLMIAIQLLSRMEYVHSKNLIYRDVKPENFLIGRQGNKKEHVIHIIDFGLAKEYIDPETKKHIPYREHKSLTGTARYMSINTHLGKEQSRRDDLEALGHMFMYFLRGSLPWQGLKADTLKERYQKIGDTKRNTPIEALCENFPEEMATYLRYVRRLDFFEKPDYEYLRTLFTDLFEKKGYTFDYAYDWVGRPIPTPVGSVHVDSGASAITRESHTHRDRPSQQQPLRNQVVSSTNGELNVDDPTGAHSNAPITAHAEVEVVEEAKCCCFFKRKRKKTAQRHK

[8] = target: Ribosomal protein S6 kinase alpha-1 (Homo sapiens, UniProt Q15418); test: Selectivity interaction (KinomeScan (DiscoverX)) EUB0000092b RPS6KA1; details: at 10 µM
Sequence of Ribosomal protein S6 kinase alpha-1 (Q15418 whole entry): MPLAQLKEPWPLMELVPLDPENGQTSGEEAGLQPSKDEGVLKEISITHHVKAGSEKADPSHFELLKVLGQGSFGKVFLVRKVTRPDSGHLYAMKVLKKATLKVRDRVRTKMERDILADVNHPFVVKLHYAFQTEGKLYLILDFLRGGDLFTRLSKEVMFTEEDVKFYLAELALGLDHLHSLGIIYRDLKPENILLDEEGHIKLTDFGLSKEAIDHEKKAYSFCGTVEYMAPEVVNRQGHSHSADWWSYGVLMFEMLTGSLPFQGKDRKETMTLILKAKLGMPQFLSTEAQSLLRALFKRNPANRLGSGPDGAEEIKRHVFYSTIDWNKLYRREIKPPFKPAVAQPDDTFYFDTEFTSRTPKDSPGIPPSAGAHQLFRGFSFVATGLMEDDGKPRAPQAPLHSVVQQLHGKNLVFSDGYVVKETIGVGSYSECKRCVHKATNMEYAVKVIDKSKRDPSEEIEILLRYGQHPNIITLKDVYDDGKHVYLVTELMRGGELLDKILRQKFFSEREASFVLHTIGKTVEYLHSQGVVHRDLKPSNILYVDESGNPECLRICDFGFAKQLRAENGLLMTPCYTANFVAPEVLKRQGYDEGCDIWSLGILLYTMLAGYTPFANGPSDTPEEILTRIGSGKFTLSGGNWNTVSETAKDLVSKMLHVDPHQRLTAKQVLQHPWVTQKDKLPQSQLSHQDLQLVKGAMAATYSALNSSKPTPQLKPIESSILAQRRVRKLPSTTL

[9] = target: T3, Mitogen-activated protein kinase kinase kinase 3 (Homo sapiens) (UniProt Q99759); details: at 10 µM
T3 sequence (whole entry): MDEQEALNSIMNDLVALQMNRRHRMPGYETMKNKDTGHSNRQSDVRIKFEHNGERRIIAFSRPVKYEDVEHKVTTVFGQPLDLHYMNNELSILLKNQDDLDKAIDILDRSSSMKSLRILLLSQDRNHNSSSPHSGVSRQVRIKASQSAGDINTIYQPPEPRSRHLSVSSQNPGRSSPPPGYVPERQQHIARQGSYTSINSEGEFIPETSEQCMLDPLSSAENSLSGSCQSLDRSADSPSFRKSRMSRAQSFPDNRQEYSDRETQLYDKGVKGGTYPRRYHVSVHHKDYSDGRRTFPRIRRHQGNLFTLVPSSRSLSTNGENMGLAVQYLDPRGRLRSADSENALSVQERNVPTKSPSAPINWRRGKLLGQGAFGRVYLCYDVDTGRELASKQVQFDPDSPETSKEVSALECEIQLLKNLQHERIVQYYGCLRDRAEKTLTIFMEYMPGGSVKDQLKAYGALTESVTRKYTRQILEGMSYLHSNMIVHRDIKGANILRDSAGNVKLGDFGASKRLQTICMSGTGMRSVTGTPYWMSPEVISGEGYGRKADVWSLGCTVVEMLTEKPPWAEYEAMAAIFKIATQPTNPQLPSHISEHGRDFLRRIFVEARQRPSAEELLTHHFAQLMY

[10] = target: Non-receptor tyrosine-protein kinase TYK2 (Homo sapiens, UniProt P29597); test: Selectivity interaction (KinomeScan (DiscoverX)) EUB0001619a TYK2; details: at 1 µM

Sequence of SRSF protein kinase 2 (Homo sapiens) (P78362 whole entry, looked up): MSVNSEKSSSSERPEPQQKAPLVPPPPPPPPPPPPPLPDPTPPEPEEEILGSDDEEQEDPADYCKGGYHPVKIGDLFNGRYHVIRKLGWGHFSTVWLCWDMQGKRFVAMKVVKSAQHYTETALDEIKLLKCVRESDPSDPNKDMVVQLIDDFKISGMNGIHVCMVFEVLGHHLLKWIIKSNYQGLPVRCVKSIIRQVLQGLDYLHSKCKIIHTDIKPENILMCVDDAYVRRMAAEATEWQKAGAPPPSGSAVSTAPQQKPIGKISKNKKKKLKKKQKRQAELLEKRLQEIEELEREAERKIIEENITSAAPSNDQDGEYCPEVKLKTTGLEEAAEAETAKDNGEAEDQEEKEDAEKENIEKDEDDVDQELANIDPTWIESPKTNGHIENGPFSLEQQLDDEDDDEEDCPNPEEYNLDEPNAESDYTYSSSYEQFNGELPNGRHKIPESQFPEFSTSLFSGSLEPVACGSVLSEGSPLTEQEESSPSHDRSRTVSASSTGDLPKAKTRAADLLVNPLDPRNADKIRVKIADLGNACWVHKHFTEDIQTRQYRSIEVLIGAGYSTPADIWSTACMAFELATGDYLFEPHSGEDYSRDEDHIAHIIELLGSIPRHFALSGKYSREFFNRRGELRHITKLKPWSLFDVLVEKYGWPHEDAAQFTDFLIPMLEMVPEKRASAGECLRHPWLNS
Sequence of cGMP-inhibited 3',5'-cyclic phosphodiesterase 3A (Q14432 whole entry): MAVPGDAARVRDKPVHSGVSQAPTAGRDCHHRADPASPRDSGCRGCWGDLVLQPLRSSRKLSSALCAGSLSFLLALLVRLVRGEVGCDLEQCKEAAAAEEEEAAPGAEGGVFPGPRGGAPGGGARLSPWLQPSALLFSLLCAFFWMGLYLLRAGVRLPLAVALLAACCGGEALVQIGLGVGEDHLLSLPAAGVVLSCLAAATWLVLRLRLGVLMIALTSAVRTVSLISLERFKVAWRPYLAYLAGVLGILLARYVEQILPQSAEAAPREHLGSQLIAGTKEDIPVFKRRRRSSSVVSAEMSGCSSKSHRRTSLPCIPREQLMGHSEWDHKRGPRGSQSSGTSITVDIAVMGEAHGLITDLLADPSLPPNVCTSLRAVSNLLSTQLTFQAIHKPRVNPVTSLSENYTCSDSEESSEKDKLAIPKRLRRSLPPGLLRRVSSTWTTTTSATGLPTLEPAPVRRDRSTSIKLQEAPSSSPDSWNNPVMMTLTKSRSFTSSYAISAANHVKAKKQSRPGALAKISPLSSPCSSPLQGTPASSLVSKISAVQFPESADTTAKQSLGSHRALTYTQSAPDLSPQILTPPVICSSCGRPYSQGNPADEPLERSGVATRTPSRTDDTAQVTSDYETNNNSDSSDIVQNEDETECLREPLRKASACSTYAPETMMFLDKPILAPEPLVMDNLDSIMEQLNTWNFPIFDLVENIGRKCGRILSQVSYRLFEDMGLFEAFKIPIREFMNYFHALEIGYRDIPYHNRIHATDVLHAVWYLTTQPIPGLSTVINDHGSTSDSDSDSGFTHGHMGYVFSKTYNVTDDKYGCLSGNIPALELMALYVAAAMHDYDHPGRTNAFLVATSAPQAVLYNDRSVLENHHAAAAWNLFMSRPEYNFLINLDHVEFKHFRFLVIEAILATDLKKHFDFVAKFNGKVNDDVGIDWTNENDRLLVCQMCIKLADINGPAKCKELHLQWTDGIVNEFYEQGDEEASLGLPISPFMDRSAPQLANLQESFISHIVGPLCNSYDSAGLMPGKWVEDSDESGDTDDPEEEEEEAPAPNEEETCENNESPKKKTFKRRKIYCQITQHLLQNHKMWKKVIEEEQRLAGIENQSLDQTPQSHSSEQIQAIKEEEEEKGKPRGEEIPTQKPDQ

CC[C@@H](Nc1c(C#N)c(-c2ccc(-c3cccc(C)c3F)cc2)nc2cnccc12)C(=O)O [BAY-091] was tested, and the % of inhibition [1] was 74%.
CC[C@@H]1[C@H](F)C(=O)N[C@@H]1COc1nccc2cc(C(N)=O)c(OC)cc12 [ZIMLOVISERTIB] was tested, and the % of inhibition ([2]; at 0.01 µM) was 6.9%, the % of inhibition ([2]; at 0.04 µM) was -23% and the % of inhibition ([2]; at 0.2 µM) was -5.5%. For the same molecule, the % of inhibition ([2]; at 1 µM) was 11.7% and the % of inhibition ([2]; at 5 µM) was 19.9%.
In the case of COCC(=O)NC/C=C/c1ccc2ncnc(Nc3ccc(Oc4ccc(C)nc4)c(C)c3)c2c1 [CP-724714], the % of control [3] is reported as 100%.
COc1cc(Nc2nc(C)cc(-c3cnn4nc(OC)ccc34)n2)cc(C(F)(F)F)c1 was tested, and the % of control [4] was 78%.
With Cc1cnc(Nc2ccc(F)cc2Cl)nc1-c1c[nH]c(C(=O)N[C@H](CO)c2cccc(Cl)c2)c1 the % of inhibition [5] was 18%.
In the case of CCc1cccc(CC)c1NC(=O)c1nn(C)c2c1CCc1cnc(Nc3ccc(C(=O)NC4CCN(C)CC4)cc3OC(F)(F)F)nc1-2, the IC50 [6] is reported as greater than 10 µM.
Molecule Nc1cnc(N2CCc3cc(S(=O)(=O)Nc4c(F)cc(Cl)cc4F)cc(N4CCCC4=O)c32)nc1 [TP-020n] has a % of control [7] of 97%.
For CCC(=O)N1CCN(c2ccc(-n3c(=O)ccc4cnc5ccc(-c6cnc7ccccc7c6)cc5c43)cc2C(F)(F)F)CC1, the % of control [8] was 68%.
Cc1cc([C@@H](C)Nc2ccccc2C(=O)O)c2nc(N3CCOCC3)cc(=O)n2c1 [AZD-6482] showed a % of control [9] of 87%.
With N#Cc1cccc(-c2c[nH]c3ncnc(N4CCOCC4)c23)c1 the % of control [10] was 69%.
